{
  "source": "patent US20100178299A1",
  "about": "“METHODS AND COMPOSITIONS FOR IMPROVING IMMUNE RESPONSES” (Northeastern University, priority 2007, published 2010)",
  "key": {"[1]": {"target": "T1, A2AR (Homo sapiens, UniProt P29274)", "T1 construct": "host or cells: cells, not specified", "T1 sequence (P29274 whole entry)": "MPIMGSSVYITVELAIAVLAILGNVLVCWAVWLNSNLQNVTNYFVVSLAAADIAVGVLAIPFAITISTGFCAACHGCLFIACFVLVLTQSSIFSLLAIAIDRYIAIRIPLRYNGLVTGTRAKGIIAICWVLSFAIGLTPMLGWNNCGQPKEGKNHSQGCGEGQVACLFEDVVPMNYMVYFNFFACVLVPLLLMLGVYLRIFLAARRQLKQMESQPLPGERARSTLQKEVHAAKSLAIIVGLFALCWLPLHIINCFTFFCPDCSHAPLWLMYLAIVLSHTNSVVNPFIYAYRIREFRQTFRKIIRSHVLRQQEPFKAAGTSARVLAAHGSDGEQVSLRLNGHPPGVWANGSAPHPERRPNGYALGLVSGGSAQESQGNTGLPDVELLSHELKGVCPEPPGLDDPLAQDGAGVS", "experiment": "Control assay of ex vivo serum from caffeine-treated mice on adenosine→A2AR-induced cAMP accumulation in cells", "format": "cell-based", "settings": "ex vivo serum from mice given caffeine 0.1% w/v in drinking water"}, "[2]": {"system": "RMA T lymphoma", "experiment": "RMA T lymphoma growth, rejection and survival in mice treated with caffeine and/or 60% oxygen", "format": "in vivo, C57BL/6 mice"}, "[3]": {"system": "TNP-specific IgM", "experiment": "TNP-KLH/CFA immunization with IFA booster, indirect ELISA of TNP-specific IgM (Example 2)", "format": "in vivo, C57B1/6 mice"}, "[4]": {"system": "B16 melanoma", "experiment": "B16 melanoma growth and survival in mice given GM-CSF-transfected B16 tumor vaccine", "format": "in vivo, C57BL/6 mice", "settings": "for survival of mice: log-rank", "text": "Tumor melanoma cells are transfected with GM-CSF then irradiated or treated with anti-proliferative drug, mitomycin C, in order to prevent the proliferation of these tumor vaccine cells in a patient to be injected with this vaccine. […] Hodi F S, Dranoff G. Combinatorial cancer immunotherapy. Adv Immunol. 2006; 90:341-68\nB16 melanoma (1×10^6 cells, s.c.) were inoculated to syngeneic C57BL/6 mice. All the mice received tumor vaccination, GM-CSF transfectant of B16 cells (1×10^6 cells, s.c.), for 3 times in every week starting from day 2. On the same day, treatment with KW6002 (2 mg/kg, daily s.c. injection) and/or 60% oxygen was started until the end of the experiment. B16 tumor growth was retarded by treatment with 60% oxygen and combined treatment with KW6002 (left). Perpendicular tumor diameters were measured and tumor volumes were calculated according to the formula a2×b×0.52, where a is the smaller and b is the larger tumor diameter. […] The mice were euthanized when tumor reached 2.0 cm in diameter or became ulcerated. […] The difference was statistically significant with control vs 60% O2 (p=0.033) and control vs 60% O2+KW (p=0.001). The statistics was calculated by log-rank test."}, "[5]": {"system": "MCA 205 fibrosarcoma lung metastases", "experiment": "Adoptive immunotherapy of MCA 205 fibrosarcoma lung metastases", "format": "in vivo, mice", "settings": "KW6002 20 mg/kg daily i.p. with adoptive transfer of 12.5×10^6 anti-tumor T cells; day 21", "procedure": "Here, we observed the effect of adoptively transferred anti-tumor T cells on the weakly immunogenic MCA 205 fibrosarcoma lung metastases if treatment included A2AR antagonist KW6002. It is shown that treatment with this long-lived A2AR antagonist may strongly enhance the efficacy of adoptive immunotherapy (FIG. 7).\nCTLs were prepared from tumor draining lymph nodes isolated from lymph nodes 12 days after s.c. inoculation with 1.5×105 MCA205 fibrosarcoma. After 2 days anti-CD3 activation and additional 3 days IL-2 expansion, these T cells were injected into mice with 10 days established pulmonary metastases (3×10^5 MCA205 cells). After the adoptive transfer, the mice received daily i.p. injection of 20 mg/kg of KW6002. The pulmonary metastases were examined by day 21 after tumor inoculation. (Please note that tumors appear as white nodules upon the ink injected lungs.)"}, "[6]": {"settings": "caffeine alone in drinking water (0.1% w/v), FIG. 2"}},
  "note": "“Also recorded” adds a separate entry of the source.",
  "data": [
    {"compound": "Cn1c(=O)c2c(ncn2C)n(C)c1=O", "note": "[caffeine, 1,3,7-trimethylxanthine]", "values": [
      {"measurement": "in vivo levels of caffeine in serum versus adenosine→A2AR-induced cAMP accumulation", "setting": "[1]", "result": "sufficiently high to prevent (antagonize) adenosine→A2AR-induced cAMP accumulation in cells"},
      {"measurement": "RMA tumor growth", "setting": "[2]; [6]", "result": "delayed tumor growth in mice"},
      {"measurement": "survival", "setting": "[2]; [6]", "result": "no significant improvement of survival"},
      {"measurement": "rejection of RMA T lymphoma", "setting": "[2]; combined treatment with caffeine and high (60%) oxygen atmosphere", "result": "significantly improved spontaneous rejection of RMA T lymphoma; also recorded: dramatically improving tumor rejection and survival; also recorded: significantly improved T cell-mediated rejection of RMA T lymphoma"},
      {"measurement": "survival of mice", "setting": "[2]; low dose RMA 2×10^5 cells s.c., combined caffeine and 60% oxygen, about 30% of control mice survived", "result": "significantly improved survival of mice"},
      {"measurement": "effectiveness of immunization (TNP-specific IgM)", "setting": "[3]; caffeine in drinking water added to 60% oxygen versus 60% oxygen alone, FIG. 4B", "result": "further improved effectiveness of immunization"}
    ]},
    {"compound": "oxygen", "values": [
      {"measurement": "tumor rejection", "setting": "[2]; high dose RMA 3×10^5 cells s.c., 60% oxygen alone, n=8, most of the mice", "result": "did not reject the tumor; also recorded: couldn't reject the tumor"},
      {"measurement": "TNP-specific IgM production", "setting": "[3]; 60% oxygen after vaccination versus normal oxygen, FIG. 4A", "result": "produced more IgM than control immunized mice"},
      {"measurement": "B16 tumor growth", "setting": "[4]; 60% oxygen alone, with tumor vaccine, n=8", "result": "retarded"},
      {"measurement": "survival of mice", "setting": "[4]; 60% oxygen alone, with tumor vaccine, p=0.033 vs control", "result": "prolonged survival of mice"}
    ]},
    {"compound": "CCn1c(=O)c2c(nc(/C=C/c3ccc(OC)c(OC)c3)n2C)n(CC)c1=O", "note": "[KW6002, (E)-8-(3,4-dimethoxystyryl)-1,3-diethyl-7-methylxanthine]", "values": [
      {"measurement": "lung tumor nodules (pulmonary metastases)", "setting": "[5]", "result": "most of the tumor nodules were eliminated"},
      {"measurement": "B16 tumor growth", "setting": "[4]; KW6002 2 mg/kg daily s.c. combined with 60% oxygen, n=8, 2 mg/kg", "result": "can significantly retard tumor growth; also recorded: retarded"},
      {"measurement": "survival of mice", "setting": "[4]; KW6002 2 mg/kg daily s.c. combined with 60% oxygen, p=0.001 vs control", "result": "prolonged survival of mice"}
    ]}
  ]
}
